# Data published in patent US20250186325A1, “COMPOSITIONS OF ASCORBIC ACID SALTS” (SHISEIDO COMPANY, LTD., priority 2023, published 2025).
# Assay: Assay of SAP and AA2G by HPLC (ascorbic acid derivative loss)
# Type: physicochemical
# Settings: in FL#1, HPLC
# Text: The amount of ascorbic acid derivative content in a composition can be determined using a wide range of techniques including, but not limited to: titrimetric, spectrophotometric, electrochemical, fluorimetric, enzymatic and chromatographic. Methods for determining ascorbic acid derivative content in a topical composition can be complicated/confounded by the presence of excipients or other antioxidant agents (e.g., agents for stabilizing Vitamin C), as well as degradation products. Of the above-listed methods, high performance liquid chromatography may be preferred. See, A M Maia et al., “Validation of HPLC stability-indicating method for Vitamin C in semisolid pharmaceutical/cosmetic preparations . . . ” Talanta Vol. 71, pp. 639-643 (2007).
# In addition, an assay of SAP and AA2G were analyzed by HPLC.
smiles,measurement,setting,value
"O=C1O[C@H]([C@@H](O)CO)C(O)=C1O[C@H]1O[C@H](CO)[C@@H](O)[C@H](O)[C@H]1O [AA2G, ascorbyl glucoside]",% Loss @25° C. (4 weeks),25° C.,−1.00%
same,% Loss @37° C. (4 weeks),37° C.,−1.00%
same,% Loss @40° C. (4 weeks),40° C.,−1.00%
same,% Loss @45° C. (4 weeks),45° C.,0%
